Target: T1, Caspase-1 (Homo sapiens) (UniProt P29466)
T1 sequence (whole entry): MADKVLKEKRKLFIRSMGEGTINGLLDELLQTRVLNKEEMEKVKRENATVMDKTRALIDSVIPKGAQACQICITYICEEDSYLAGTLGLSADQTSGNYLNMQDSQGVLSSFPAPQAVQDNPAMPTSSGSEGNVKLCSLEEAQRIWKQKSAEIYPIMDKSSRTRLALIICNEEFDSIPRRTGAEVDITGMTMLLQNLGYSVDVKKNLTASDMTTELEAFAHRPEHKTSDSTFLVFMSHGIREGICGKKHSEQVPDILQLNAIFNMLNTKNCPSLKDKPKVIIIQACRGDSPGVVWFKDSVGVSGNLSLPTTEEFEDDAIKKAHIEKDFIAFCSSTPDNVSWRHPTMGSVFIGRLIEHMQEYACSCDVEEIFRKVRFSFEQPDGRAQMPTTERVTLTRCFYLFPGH
Assay: Inhibitory activity against human IL-1 beta converting enzyme from monocytic THP-1 cell line, activity expressed as the logarithm of the second order rate constant for inactivation
Type: cell-based

SMILES | Activity
CC(C)[C@H](NC(=O)OCc1ccccc1)C(=O)N[C@@H](CC(=O)O)C(=O)COP(=O)(Oc1ccc(Cl)cc1)Oc1ccc(Cl)cc1 | 4.89
O=C(O)CC(NC(=O)Cn1c(-c2cccnc2)ncc(NC(=O)OCc2ccccc2)c1=O)C(=O)COc1cc(C(F)(F)F)nn1-c1ccccc1 (centres undefined) | 5.16
CC(C)[C@H](NC(=O)CCc1ccccc1)C(=O)N[C@@H](C)C(=O)N[C@@H](CC(=O)O)C(=O)COC(=O)c1ccc([N+](=O)[O-])cc1 | 6.11
CC(C)[C@H](NC(=O)OCc1ccccc1)C(=O)N[C@@H](C)C(=O)N[C@@H](CC(=O)O)C(=O)COC(=O)c1c(Cl)cccc1Cl | 5.61
CC(C)[C@H](NC(=O)OCc1ccccc1)C(=O)N[C@@H](C)C(=O)N[C@@H](CC(=O)O)C(=O)COP(=O)(Oc1ccc(Cl)cc1)Oc1ccc(Cl)cc1 | 5.36
CC(C)[C@H](NC(=O)OCc1ccccc1)C(=O)N[C@@H](C)C(=O)N[C@@H](CC(=O)O)C(=O)COP(=O)(Oc1ccccc1)Oc1ccccc1 | 5.07
O=C(O)C[C@H](NC(=O)OCc1ccccc1)C(=O)COP(=O)(Oc1ccccc1)Oc1ccccc1 | 4.07
CC(C)[C@H](NC(=O)OCc1ccccc1)C(=O)N1CCCCC1C(=O)N[C@H](CC(=O)O)C(=O)COc1cc(C(F)(F)F)nn1-c1ccccc1 (some centres undefined) | 5.43
C[C@H](NC(=O)[C@H](Cc1ccccc1)NC(=O)OCc1ccccc1)C(=O)COP(=O)(Oc1ccccc1)Oc1ccccc1 | 2.7
CC(C)C[C@H](NC(=O)OCc1ccccc1)C(=O)N[C@@H](Cc1ccccc1)C(=O)COP(=O)(Oc1ccccc1)Oc1ccccc1 | 2.7
O=C(O)CC(NC(=O)Cn1c(-c2ccc(F)cc2)ncc(NC(=O)NCc2ccccc2)c1=O)C(=O)COC(=O)c1c(Cl)cccc1Cl (centres undefined) | 5.17
C=CCOC(=O)N[C@@H](CC(=O)O)C(=O)COC(=O)c1c(C)cccc1C | 2.91
Cc1ncc(NC(=O)OCc2ccccc2)c(=O)n1CC(=O)NC(CC(=O)O)C(=O)COc1cc(C(F)(F)F)nn1-c1ccccc1 (centres undefined) | 4.98
CC(C)[C@H](NC(=O)OCc1ccccc1)C(=O)N[C@@H](CC(=O)O)C(=O)COP(=O)(Oc1ccccc1)Oc1ccccc1 | 4.7
O=C(O)CC(NC(=O)Cn1c(-c2cccs2)ncc(NC(=O)OCc2ccccc2)c1=O)C(=O)COC(=O)c1c(Cl)cccc1Cl (centres undefined) | 5.43
O=C(O)CC(NC(=O)Cn1c(-c2ccc(F)cc2)ncc(NS(=O)(=O)c2ccccc2)c1=O)C(=O)COC(=O)c1c(Cl)cccc1Cl (centres undefined) | 4.95
O=C(O)CC(NC(=O)Cn1c(-c2ccc(F)cc2)ncc(NC(=O)OCc2ccccc2)c1=O)C(=O)COP(=O)(Oc1ccccc1)Oc1ccccc1 (centres undefined) | 5.16
CC(C)[C@H](NC(=O)CCc1ccccc1)C(=O)N[C@@H](C)C(=O)N[C@@H](CC(=O)O)C(=O)COC(=O)c1c(F)c(F)c(F)c(F)c1F | 6.04
O=C(O)C[C@H](NC(=O)OCc1ccccc1)C(=O)COc1cc(C(F)(F)F)nn1-c1ccccc1 | 4.04
C=CCOC(=O)N[C@@H](CC(=O)O)C(=O)COC(=O)c1c(O)cccc1O | 3.43
C=CCOC(=O)N[C@@H](CC(=O)O)C(=O)COC(=O)c1ccc([N+](=O)[O-])cc1 | 1.79
C[C@H](NC(=O)[C@H](Cc1ccccc1)NC(=O)OCc1ccccc1)C(=O)COC(=O)c1c(Cl)cccc1Cl | 2.7

The remaining lines, values ahead:

Activity | SMILES
3.93 | CC(C)[C@@H](C(=O)N[C@@H](C)C(=O)N[C@@H](CC(=O)O)C(=O)COc1cc(C(F)(F)F)nn1-c1ccccc1)N(C)C(=O)OCc1ccccc1
5.45 | CC(C)[C@H](NC(=O)CCc1ccccc1)C(=O)N[C@@H](C)C(=O)N[C@@H](CC(=O)O)C(=O)COC(=O)c1ccccc1
3.85 | O=C(O)C[C@H](NC(=O)OCc1ccccc1)C(=O)COC(=O)c1c(Cl)cccc1Cl
5.37 | CC(C)[C@H](NC(=O)OCc1ccccc1)C(=O)N(C)[C@@H](C)C(=O)N[C@@H](CC(=O)O)C(=O)COc1cc(C(F)(F)F)nn1-c1ccccc1
4.95 | CN(C)CCCCCC(=O)Nc1cnc(-c2ccc(F)cc2)n(CC(=O)NC(CC(=O)O)C(=O)COC(=O)c2c(Cl)cccc2Cl)c1=O (centres undefined)
4.56 | Nc1cnc(-c2ccc(F)cc2)n(CC(=O)NC(CC(=O)O)C(=O)COC(=O)c2c(Cl)cccc2Cl)c1=O (centres undefined)
5.98 | CC(=O)N[C@@H](Cc1ccc(O)cc1)C(=O)N[C@H](C(=O)N[C@@H](C)C(=O)N[C@@H](CC(=O)O)C(=O)COC(=O)c1c(C(F)(F)F)cccc1C(F)(F)F)C(C)C
5.95 | CC(C)[C@H](NC(=O)CCc1ccccc1)C(=O)N[C@@H](C)C(=O)N[C@@H](CC(=O)O)C(=O)COC(=O)c1c(C(F)(F)F)cccc1C(F)(F)F
5.43 | O=C(O)CC(NC(=O)Cn1c(-c2ccc(F)cc2)ncc(NC(=O)OCc2ccccc2)c1=O)C(=O)COC(=O)c1c(Cl)cccc1Cl (centres undefined)
2.48 | CC(C)[C@H](NC(=O)[C@@H]1CCCN1C(=O)OCc1ccccc1)C(=O)N[C@@H](CC(=O)O)C(=O)COc1cc(C(F)(F)F)nn1-c1ccccc1
3.72 | C=CCOC(=O)N[C@@H](CC(=O)O)C(=O)COC(=O)c1c(C(F)(F)F)cccc1C(F)(F)F
6.04 | CC(=O)N[C@@H](Cc1ccc(O)cc1)C(=O)N[C@H](C(=O)N[C@@H](C)C(=O)N[C@@H](CC(=O)O)C(=O)COC(=O)c1c(C)cccc1C)C(C)C
5.45 | CC(C)[C@H](NC(=O)OCc1ccccc1)C(=O)N[C@@H](C)C(=O)N[C@@H](CC(=O)O)C(=O)COc1cc(C(F)(F)F)nn1-c1ccccc1
2.99 | C=CCOC(=O)N[C@@H](CC(=O)O)C(=O)COC(=O)c1c(F)c(F)c(F)c(F)c1F
2.7 | C[C@H](NC(=O)[C@H](Cc1ccccc1)NC(=O)OCc1ccccc1)C(=O)COc1cc(C(F)(F)F)nn1-c1ccccc1
5.06 | CC(C)[C@H](NC(=O)OCc1ccccc1)C(=O)N1CCC[C@H]1C(=O)N[C@@H](CC(=O)O)C(=O)COc1cc(C(F)(F)F)nn1-c1ccccc1
5.2 | O=C(O)CC(NC(=O)Cn1c(-c2ccc(F)cc2)ncc(NC(=O)OCc2ccccc2)c1=O)C(=O)COc1cc(C(F)(F)F)nn1-c1ccccc1 (centres undefined)
2.48 | CC(C)[C@H](NC(=O)OCc1ccccc1)C(=O)N[C@@H](C)C(=O)N(C)[C@@H](CC(=O)O)C(=O)COc1cc(C(F)(F)F)nn1-c1ccccc1
4.3 | CC(C)[C@H](NC(=O)OCc1ccccc1)C(=O)N[C@@H](CC(=O)O)C(=O)COc1cc(C(F)(F)F)nn1-c1ccccc1
4.66 | O=C(O)CC(NC(=O)Cn1c(-c2ccc(F)cc2)ncc(NC(=O)c2ccco2)c1=O)C(=O)COC(=O)c1c(Cl)cccc1Cl (centres undefined)
6.08 | Cc1cccc(C)c1C(=O)OCC(=O)[C@H](CC(=O)O)NC(=O)[C@H](C)NC(=O)[C@@H](NC(=O)CCc1ccccc1)C(C)C
5.85 | CC(C)[C@H](NC(=O)CCc1ccccc1)C(=O)N[C@@H](C)C(=O)N[C@@H](CC(=O)O)C(=O)COC(=O)c1c(O)cccc1O
